# Measured values: patent publication US9522962B2, “Peptides, conjugates and method for increasing immunogenicity of a vaccine” (Academisch Ziekenhuis Leiden h.o.d.n. LUMC, priority 2010, dated 2016)
# Entries after “also recorded” stand apart in the source; their conditions may differ. Like-named read-outs stand apart in the source and are kept apart here. Square brackets hold non-standard residues; d marks the D form. Ends that are not written are not given here. * marks the point of attachment. Biotin = O=C1N[C@H]2[C@H](CS[C@H]2CCCCC(=O)*)N1; code O = not defined here; Ahx = NCCCCCC(=O)O; For = O=C*
# Tested on: antibodies in TETAQUIN® (anti-TTd antibodies)
# Type: binding, human
# Details: for binding to TETAQUIN (screen of overlapping 22-mer TTx peptides): FIG. 3 (α-chain), FIG. 4 (β-chain); for ELISA OD, effect of longer spacer and C- versus N-terminal biotinylation: Table 4, antibody source not given
# [1] = Table 2, length variants of peptide β-32, section 'With linker', […] diluted 800x, OD at 415 nm
# [2] = Table 2, length variants of peptide β-32, section 'Without linker' (sequence listed without Z O), […]
# [3] = Table 3, further length variants and Lys(formyl) variants, […], neg. control OD 0.30
Substance,OD [1],OD [2],further results
A N S K F I G I T E L K K L E S K I Z O (ANSKFIGITELKKLESKI-{Ahx-code O}; reading uncertain) [P4],1.05,1.05,–
A N S K F I G I T E L K K L E S Z O (ANSKFIGITELKKLES-{Ahx-code O}; reading uncertain) [P8],0.85,0.85,–
A N S K F I G I T E L K K L Z O (ANSKFIGITELKKL-{Ahx-code O}; reading uncertain) [P13],0.6,0.6,–
A N S K F I G I T E L K Z O (ANSKFIGITELK-{Ahx-code O}; reading uncertain) [P19],0.2,0.2,–
A N S K F I G I T E Z O (ANSKFIGITE-{Ahx-code O}; reading uncertain) [P26],0.2,0.2,–
A N S K F I G I Z O (ANSKFIGI-{Ahx-code O}; reading uncertain) [P34],0.2,0.2,–
AMDIEYNDMFNNFTVSFWLRVPZO [β41],–,–,binding to TETAQUIN (screen of overlapping 22-mer TTx peptides): good binding; also recorded: antibodies present
E L K K L E S K I N K V F S Z O [0925-62],–,–,OD [3]: 0.35
ELGKKFNIKTRLSYFSMNHDPVZO [α31],–,–,binding to TETAQUIN (screen of overlapping 22-mer TTx peptides): good binding; also recorded: antibodies present
"F I G I T E L J J L E S J I Z O [0925-70, J = Lys(formyl)]",–,–,OD [3]: 1.00
"F I G I T E L J J L E S K I Z O [0925-67, J = Lys(formyl)]",–,–,OD [3]: 1.15
"F I G I T E L J K L E S K I Z O [0925-64, J = Lys(formyl)]",–,–,OD [3]: 1.70
"F I G I T E L K J L E S J I Z O [0925-69, J = Lys(formyl)]",–,–,OD [3]: 1.65
"F I G I T E L K J L E S K I Z O [0925-65, J = Lys(formyl)]",–,–,OD [3]: 1.50
"F I G I T E L K K L E S J I Z O (FIGITELKKLESK(For)I[Ahx]K; not fully specified (residue 16)) [0925-66, J = Lys(formyl)]",–,–,OD [3]: 2.10
FIGITELKKLESKINKVFST Z O [0925-52],–,–,OD [3]: 1.85
F I G I T E L K K L E S K I N K V F S Z O [0925-53],–,–,OD [3]: 1.90
"F I G I T E L K K L E S K I N K V F Z Z O (FIGITELKKLESKINKVF[Ahx][Ahx]K; not fully specified (residue 21); also: O: biotin modification, exact residue form not clear)",–,–,"ELISA OD, effect of longer spacer and C- versus N-terminal biotinylation: 1.16"
"F I G I T E L K K L E S K I N K V Z O (FIGITELKKLESKINKV[Ahx]K; not fully specified (residue 19); also: O: biotin modification, exact residue form not clear) [0925-55]",–,–,OD [3]: 2.00
F I G I T E L K K L E S K I N K V Z Z O (FIGITELKKLESKINKV[Ahx][Ahx]K(Biotin)),–,–,"ELISA OD, effect of longer spacer and C- versus N-terminal biotinylation: 0.68"
F I G I T E L K K L E S K I N K Z O (FIGITELKKLESKINK[Ahx]K(Biotin)) [0925-56],–,–,OD [3]: 1.55

Substance,OD [1],OD [2],further results
F I G I T E L K K L E S K I N K Z Z O (FIGITELKKLESKINK[Ahx][Ahx]K(Biotin)),–,–,"ELISA OD, effect of longer spacer and C- versus N-terminal biotinylation: 0.65"
F I G I T E L K K L E S K I N Z O (FIGITELKKLESKIN[Ahx]K(Biotin)) [0925-57],–,–,OD [3]: 1.65
F I G I T E L K K L E S K I N Z Z O (FIGITELKKLESKIN[Ahx][Ahx]K(Biotin)),–,–,"ELISA OD, effect of longer spacer and C- versus N-terminal biotinylation: 0.64"
F I G I T E L K K L E S K I Z O (FIGITELKKLESKI-{Ahx-code O}; reading uncertain) [P11],1.0,1.0,–
F I G I T E L K K L E S K I Z Z O (FIGITELKKLESKI[Ahx][Ahx]K(Biotin)),–,–,"ELISA OD, effect of longer spacer and C- versus N-terminal biotinylation: 0.79"
F I G I T E L K K L E S Z O (FIGITELKKLES-{Ahx-code O}; reading uncertain) [P17],0.45,0.45,–
F I G I T E L K K L Z O (FIGITELKKL-{Ahx-code O}; reading uncertain) [P24],0.35,0.35,–
F I G I T E L K Z O (FIGITELK-{Ahx-code O}; reading uncertain) [P32],0.2,0.2,–
G I T E L K K L E S K I N K Z O (GITELKKLESKINK[Ahx]K(Biotin)) [0925-59],–,–,OD [3]: 0.75
G I T E L K K L E S K I Z O (GITELKKLESKI-{Ahx-code O}; reading uncertain) [P16],0.45,0.45,–
G I T E L K K L E S Z O (GITELKKLES-{Ahx-code O}; reading uncertain) [P23],0.25,0.25,–
G I T E L K K L Z O (GITELKKL-{Ahx-code O}; reading uncertain) [P31],0.2,0.2,–
I G I T E L K K L E S K I N Z O (IGITELKKLESKIN[Ahx]K(Biotin)) [0925-58],–,–,OD [3]: 1.45
IKANSKFIGITELKKLESKI Z O (IKANSKFIGITELKKLESKI-{Ahx-code O}; reading uncertain) [P2],1.2,1.2,–
I K A N S K F I G I T E L K K L E S Z O (IKANSKFIGITELKKLES-{Ahx-code O}; reading uncertain) [P5],0.9,0.9,–
I K A N S K F I G I T E L K K L Z O (IKANSKFIGITELKKL-{Ahx-code O}; reading uncertain) [P9],0.6,0.6,–
I K A N S K F I G I T E L K Z O (IKANSKFIGITELK-{Ahx-code O}; reading uncertain) [P14],0.2,0.2,–
I K A N S K F I G I T E Z O (IKANSKFIGITE-{Ahx-code O}; reading uncertain) [P20],0.2,0.2,–
I K A N S K F I G I Z O (IKANSKFIGI-{Ahx-code O}; reading uncertain) [P27],0.2,0.2,–
I K A N S K F I Z O (IKANSKFI-{Ahx-code O}; reading uncertain) [P35],0.2,0.2,–
IGALETTGVVLLLEYIPEITLPZO [β18],–,–,binding to TETAQUIN (screen of overlapping 22-mer TTx peptides): good binding; also recorded: antibodies present

Substance,OD [1],OD [2],further results
J Z F I G I T E L K K L E S K I N K V F,–,–,"ELISA OD, effect of longer spacer and C- versus N-terminal biotinylation: 0.17"
J Z SKFIGITELKKLESKINKVF,–,–,"ELISA OD, effect of longer spacer and C- versus N-terminal biotinylation: 0.28"
J Z Z F I G I T E L K K L E S K I N K V F,–,–,"ELISA OD, effect of longer spacer and C- versus N-terminal biotinylation: 0.22"
"J Z Z SKFIGITELKKLESKINKVF (SKFIGITELKKLESKINKVF) [J = Biotin (N-terminal), Z = Ahx]",–,–,"ELISA OD, effect of longer spacer and C- versus N-terminal biotinylation: 0.47"
KALNPKEIEKLYTSYLSITFLRZO [β54],–,–,binding to TETAQUIN (screen of overlapping 22-mer TTx peptides): good binding; also recorded: antibodies present
KFNAYLANKWVFITITNDRLSSZO [β48],–,–,binding to TETAQUIN (screen of overlapping 22-mer TTx peptides): good binding; also recorded: antibodies present
L K K L E S K I N K V F S T Z O (LKKLESKINKVFST[Ahx]K(Biotin)) [0925-63],–,–,OD [3]: 0.40
L K K L E S K I Z O (LKKLESKI-{Ahx-code O}; reading uncertain) [P29],0.2,0.2,–
QYIKANSKFIGITELKKLES Z O (QYIKANSKFIGITELKKLES-{Ahx-code O}; reading uncertain) [P3],1.1,1.1,–
Q Y I K A N S K F I G I T E L K K L Z O (QYIKANSKFIGITELKKL-{Ahx-code O}; reading uncertain) [P6],0.75,0.75,–
Q Y I K A N S K F I G I T E L K Z O (QYIKANSKFIGITELK-{Ahx-code O}; reading uncertain) [P10],0.25,0.25,–
Q Y I K A N S K F I G I T E Z O (QYIKANSKFIGITE-{Ahx-code O}; reading uncertain) [P15],0.25,0.25,–
Q Y I K A N S K F I G I Z O (QYIKANSKFIGI-{Ahx-code O}; reading uncertain) [P21],0.2,0.2,–
Q Y I K A N S K F I Z O (QYIKANSKFI-{Ahx-code O}; reading uncertain) [P28],0.2,0.2,–
Q Y I K A N S K Z O (QYIKANSK-{Ahx-code O}; reading uncertain) [P36],0.2,0.2,–
S K F I G I T E L K K L E S K I Z O (SKFIGITELKKLESKI-{Ahx-code O}; reading uncertain) [P7],1.15,1.15,–
S K F I G I T E L K K L E S Z O (SKFIGITELKKLES-{Ahx-code O}; reading uncertain) [P12],0.8,0.8,–
S K F I G I T E L K K L Z O (SKFIGITELKKL-{Ahx-code O}; reading uncertain) [P18],0.45,0.45,–
S K F I G I T E L K Z O (SKFIGITELK-{Ahx-code O}; reading uncertain) [P25],0.2,0.2,–
